One may read the IC50 as the concentration at which inhibition is half-maximal. For orientation: solubility means the concentration that dissolves in the medium under given conditions. A high value points to a readily soluble substance.

Results on 48 compounds are retold here after ChEMBL document CHEMBL1150411, “4-(Phenylaminomethylene)isoquinoline-1,3(2H,4H)-diones as potent and selective inhibitors of the cyclin-dependent kinase 4 (CDK4)” (J Med Chem, 2008).

For data set [1], the target named is Cyclin-dependent kinase 4/cyclin D1 (Homo sapiens, UniProt P11802). As to the kind of experiment: Inhibition of CDK4/cyclin D1 expressed in Sf9 cells-baculovirus system assessed as retinoblastoma susceptibility gene product phosphorylation.
The target of data set [2] is Cyclin-dependent kinase 1/cyclin B1 (Homo sapiens, UniProt P06493). Description: Inhibition of CDK1/Cyclin B1 expressed in Sf9 cells-baculovirus system assessed as retinoblastoma susceptibility gene product phosphorylation.
The target in data set [3] is Cyclin-dependent kinase 2 (Homo sapiens, UniProt P24941). As to the kind of experiment: Inhibition of CDK2/cyclin E expressed in Sf9 cells-baculovirus system assessed as retinoblastoma susceptibility gene product phosphorylation.
The test system of a further data set is HCT-116. Description: Antiproliferative activity against human HCT116 cells by SRB method. It counts as functional, cell-based.
The subject of the next data set is MCF7. Description: Antiproliferative activity against human MCF7 cells by SRB method. It counts as functional, cell-based.
Data set [4] can be described thus: Aqueous solubility at pH 7.4. The class given is physicochemical.

≈ marks a conversion by molar mass, not a printed value.

Cyclin-dependent kinase 1/cyclin B1, sequence (P06493 whole entry): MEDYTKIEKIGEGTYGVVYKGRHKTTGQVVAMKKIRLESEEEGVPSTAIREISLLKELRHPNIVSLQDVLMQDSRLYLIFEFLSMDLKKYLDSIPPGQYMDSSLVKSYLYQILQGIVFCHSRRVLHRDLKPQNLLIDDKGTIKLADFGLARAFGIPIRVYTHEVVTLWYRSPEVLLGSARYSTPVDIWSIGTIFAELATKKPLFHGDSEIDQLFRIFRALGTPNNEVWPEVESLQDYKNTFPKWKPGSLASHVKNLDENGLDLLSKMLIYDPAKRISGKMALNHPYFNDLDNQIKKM
Cyclin-dependent kinase 1/cyclin B1, sequence (P14635 whole entry, further chain): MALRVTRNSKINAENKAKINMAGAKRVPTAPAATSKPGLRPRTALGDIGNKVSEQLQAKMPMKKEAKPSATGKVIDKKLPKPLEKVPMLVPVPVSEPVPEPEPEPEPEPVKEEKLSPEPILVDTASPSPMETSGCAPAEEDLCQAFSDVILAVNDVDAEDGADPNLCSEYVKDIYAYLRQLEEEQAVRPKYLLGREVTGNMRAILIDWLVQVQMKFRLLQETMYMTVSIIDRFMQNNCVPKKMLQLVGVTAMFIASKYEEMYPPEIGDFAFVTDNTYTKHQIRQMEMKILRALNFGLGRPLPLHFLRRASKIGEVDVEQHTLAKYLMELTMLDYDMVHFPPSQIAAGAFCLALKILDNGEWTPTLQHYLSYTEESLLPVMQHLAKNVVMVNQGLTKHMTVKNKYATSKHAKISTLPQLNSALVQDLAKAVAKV
Cyclin-dependent kinase 4/cyclin D1, sequence (P11802 whole entry): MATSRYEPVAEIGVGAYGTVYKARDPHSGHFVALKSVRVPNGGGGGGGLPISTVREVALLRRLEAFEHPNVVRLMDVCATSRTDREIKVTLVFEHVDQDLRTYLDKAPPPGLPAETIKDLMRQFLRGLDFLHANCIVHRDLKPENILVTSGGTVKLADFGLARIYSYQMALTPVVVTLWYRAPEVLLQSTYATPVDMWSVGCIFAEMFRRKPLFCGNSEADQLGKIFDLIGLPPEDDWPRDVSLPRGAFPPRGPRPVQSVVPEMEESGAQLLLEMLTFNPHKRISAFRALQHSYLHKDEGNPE
Cyclin-dependent kinase 4/cyclin D1, sequence (P24385 whole entry, further chain): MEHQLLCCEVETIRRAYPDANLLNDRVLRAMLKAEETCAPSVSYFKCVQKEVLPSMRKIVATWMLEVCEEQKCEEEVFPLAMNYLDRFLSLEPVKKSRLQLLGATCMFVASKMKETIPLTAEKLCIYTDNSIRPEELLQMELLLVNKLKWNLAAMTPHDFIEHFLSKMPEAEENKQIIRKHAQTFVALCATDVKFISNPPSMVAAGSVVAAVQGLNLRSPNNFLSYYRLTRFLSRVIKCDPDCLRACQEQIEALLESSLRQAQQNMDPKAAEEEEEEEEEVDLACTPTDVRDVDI

As to `O=C1NC(=O)c2ccc(-c3ccc(Oc4ccccc4)cc3)cc2/C1=C\Nc1ccc(CN2CCCCC2)cc1`, the IC50 in data set [1], in data set [2] and in data set [3] was more than 50 µM in each case.
In the case of `CN1CCN(c2ccc(N/C=C3\C(=O)NC(=O)c4ccc(-c5ccsc5)cc43)cc2)CC1`, the IC50 was 1.4 µM with HCT-116, 2.3 µM with MCF7, 0.1 µM in data set [1] and more than 50 µM in data set [2].
In turn, `C[C@@H]1CN(c2ccc(N/C=C3\C(=O)NC(=O)c4ccc(I)cc43)cc2)C[C@H](C)N1C` had a solubility in data set [4] of 4 µg/mL (≈ 7.75 µM). Moreover, the IC50 in data set [2] was more than 50 µM.
Take `C[C@@H]1CN(c2ccc(N/C=C3\C(=O)NC(=O)c4ccc(I)cc43)cc2)C[C@H](C)N1`: the concentration in solution in data set [4] (solubility) was 12 µg/mL (≈ 23.9 µM). The half-inhibitory concentration (IC50) is 1 µM in data set [1], more than 50 µM in data set [2] and more than 50 µM in data set [3].
Turning to `CN1CCN(c2ccc(N/C=C3\C(=O)NC(=O)c4ccc(N5CCCCC5)cc43)cc2)CC1`, the concentration for half-maximal inhibition (IC50) in data set [1] is 1.62 µM; in data set [2], more than 50 µM; in data set [3], more than 50 µM.
Consider `CN1CCN(c2ccc(N/C=C3\C(=O)NC(=O)c4ccc(-c5ccco5)cc43)cc2)CC1`, for which the IC50 in data set [1] was 0.33 µM; in data set [2], more than 50 µM; in data set [3], more than 50 µM.
For `O=C1NC(=O)c2ccc(-c3ccccc3)cc2/C1=C/Nc1ccc(CN2CCCCC2)cc1`, the IC50 was 0.32 µM in data set [1], more than 50 µM in data set [2] and more than 50 µM in data set [3].
Turning to `COc1ccc(-c2ccc3c(c2)/C(=C/Nc2ccc(CN4CCCCC4)cc2)C(=O)NC3=O)cc1`, the figures for the IC50 in data set [1], in data set [2] and in data set [3] were 0.13 µM, more than 50 µM and more than 50 µM, respectively.
Regarding `CC(=O)Nc1ccc2c(c1)/C(=C/Nc1ccc(N3CCN(C)CC3)cc1)C(=O)NC2=O`, the values for the half-maximal inhibitory concentration (IC50) in data set [1], in data set [2] and in data set [3] were 11 µM, 13.8 µM and more than 50 µM, respectively.
Consider `O=C1NC(=O)c2ccc(-c3ccc(Cl)cc3)cc2/C1=C/Nc1ccc(CN2CCCCC2)cc1`, for which the 50% inhibitory concentration (IC50) in data set [2] and in data set [3] was more than 50 µM in each case.
In data set [4], `CC1CN(c2ccc(N/C=C3\C(=O)NC(=O)c4ccc(I)cc43)cc2)CCN1C` (centres undefined) gave a solubility of 5 µg/mL (≈ 9.95 µM). The half-inhibitory concentration (IC50) in data set [2] and in data set [3] was more than 50 µM in each case.
As for `CN1CC2CC1CN2c1ccc(N/C=C2\C(=O)NC(=O)c3ccc(I)cc32)cc1` (centres undefined), the 50% inhibitory concentration (IC50) with HCT-116 was 1.9 µM; in the data set on MCF7 it was 2.6 µM; in data set [1] it was 0.32 µM; in data set [2], more than 50 µM; in data set [3], more than 50 µM. Further, the solubility in data set [4] was found to be 18 µg/mL (≈ 36 µM).
`CN1CCN(c2ccc(N/C=C3\C(=O)NC(=O)c4ccc(-n5cccc5)cc43)cc2)CC1`: the half-maximal inhibitory concentration (IC50) in the data set with HCT-116 was 1.5 µM; with MCF7, 2.3 µM; in data set [1] it was 0.14 µM; in data set [2], more than 50 µM; in data set [3], more than 50 µM.
For `O=C1NC(=O)c2ccc(-c3cccc(O)c3)cc2/C1=C/Nc1ccc(CN2CCCCC2)cc1`, the IC50 was 1.3 µM in the data set with HCT-116, 2 µM in the data set on MCF7, more than 50 µM in data set [2] and more than 50 µM in data set [3].
For `CN(C)C(=O)c1ccc2c(c1)/C(=C/Nc1ccc(CN3CCCCC3)cc1)C(=O)NC2=O`, the IC50 in data set [2] was more than 50 µM; in data set [3], 39.8 µM.
`O=C1NC(=O)c2ccc(-c3ccc(O)cc3)cc2/C1=C/Nc1ccc(CN2CCCCC2)cc1`: the concentration for half-maximal inhibition (IC50) in data set [2] and in data set [3] was more than 50 µM in each case.
On to `CN1CCN(c2cnc(N/C=C3\C(=O)NC(=O)c4ccc(-c5ccoc5)cc43)cn2)CC1`, for which the concentration for half-maximal inhibition (IC50) in the data set with HCT-116 stood at 0.95 µM; in the data set on MCF7, 1.3 µM; in data set [1], 1.25 µM.
`CN1CCN(c2ccc(N/C=C3\C(=O)NC(=O)c4ccc(-c5ccoc5)cc43)nn2)CC1`: the values for the IC50 in the data set on HCT-116 and with MCF7 were 1.9 µM and 4.5 µM, respectively.
Consider `CC(=O)Nc1ccc2c(c1)/C(=C/Nc1ccc(CN3CCCCC3)cc1)C(=O)NC2=O`, for which the half-inhibitory concentration (IC50) in data set [1] is 3.5 µM; in data set [2] it was more than 50 µM.
As to `CN1CCN(c2ccc(N/C=C3\C(=O)NC(=O)c4ccc(-c5ccccc5)cc43)cc2)CC1`, the IC50 was 0.39 µM in data set [1], more than 50 µM in data set [2] and more than 50 µM in data set [3].
`CN1CCN(c2ccc(N/C=C3\C(=O)NC(=O)c4ccc(-c5ccoc5)cc43)cc2F)CC1`: the IC50 in the data set with HCT-116 is 2.2 µM; in the data set on MCF7 it was 0.9 µM; in data set [2], more than 50 µM.
In the case of `O=C1NC(=O)c2ccc(-n3cccc3)cc2/C1=C/Nc1ccc(CN2CCCCC2)cc1`, the IC50 in the data set with HCT-116 is 2.7 µM; in the data set with MCF7, 2.1 µM; in data set [1], 0.14 µM; in data set [2] it was more than 50 µM; in data set [3], more than 50 µM.
As to `O=C1NC(=O)c2ccccc2/C1=C/Nc1ccc(N2CCOCC2)cc1`, the IC50 in data set [1] and in data set [2] was more than 29 µM in each case.
Turning to `O=C1NC(=O)c2ccc(Nc3ccccc3)cc2/C1=C/Nc1ccc(CN2CCCCC2)cc1`, the IC50 in data set [2] is more than 50 µM.
For the compound `CN1CCN(c2ccc(N/C=C3\C(=O)NC(=O)c4ccc(-c5ccoc5)cc43)cn2)CC1`, the IC50 in data set [1] was 0.11 µM; in data set [2] it was more than 50 µM; in data set [3], more than 50 µM.
In the case of `O=C1NC(=O)c2ccc(I)cc2/C1=C/Nc1ccc(CN2CCCCC2)cc1`, the figures for the IC50 (in the data set on HCT-116; in the data set with MCF7; in data set [2]) were 2.7 µM, 1 µM and more than 50 µM, respectively.
As to `COc1cccc(-c2ccc3c(c2)/C(=C/Nc2ccc(CN4CCCCC4)cc2)C(=O)NC3=O)c1`, the IC50 in data set [2] was more than 50 µM.
For `O=C1NC(=O)c2ccc(N3CCCCC3)cc2/C1=C/Nc1ccc(CN2CCCCC2)cc1`, the figures for the concentration for half-maximal inhibition (IC50) in data set [1], in data set [2] and in data set [3] were 1 µM, more than 50 µM and more than 50 µM, respectively.
Consider `O=C1NC(=O)c2ccc(N3CCOCC3)cc2/C1=C/Nc1ccc(CN2CCCCC2)cc1`, for which the 50% inhibitory concentration (IC50) in data set [2] and in data set [3] was more than 50 µM in each case.
Take `CN1CCN(c2ccc(N/C=C3\C(=O)NC(=O)c4ccc(-c5ccoc5)cc43)cc2)CC1`: the IC50 in the data set on HCT-116 was 1.2 µM; in the data set on MCF7, 1.1 µM; in data set [2], more than 50 µM.
For the compound `CN1CCN(c2ccc(N/C=C3\C(=O)NC(=O)c4ccccc43)cc2)CC1`, the concentration for half-maximal inhibition (IC50) was 4.1 µM in data set [1], more than 28 µM in data set [2] and more than 28 µM in data set [3].
Take `CN1CCN(c2ccc(N/C=C3\C(=O)NC(=O)c4ccc(I)cc43)cc2)CC1`: in data set [4], the concentration in solution (solubility) was 1 µg/mL (≈ 2.05 µM). For the same compound, the half-maximal inhibitory concentration (IC50) in data set [2] was more than 50 µM.
On to `CN1CCN(c2ccc3c(c2)/C(=C/Nc2ccc(CN4CCCCC4)cc2)C(=O)NC3=O)CC1`, for which the 50% inhibitory concentration (IC50) in data set [2] and in data set [3] was more than 50 µM each time.
`CN1CCN(c2ccc(N/C=C3\C(=O)NC(=O)c4ccc(C(=O)N(C)C)cc43)cc2)CC1`: the concentration for half-maximal inhibition (IC50) in data set [2] was more than 50 µM.
Regarding `O=C1NC(=O)c2ccc(-c3cccnc3)cc2/C1=C/Nc1ccc(CN2CCCCC2)cc1`, the IC50 in data set [1] was 0.05 µM; in data set [2] it was more than 50 µM; in data set [3] it was more than 50 µM.
For the compound `O=C1NC(=O)c2ccc(-c3ccsc3)cc2/C1=C/Nc1ccc(CN2CCCCC2)cc1`, the half-maximal inhibitory concentration (IC50) with HCT-116 is 1 µM; in the data set on MCF7, 3.4 µM; in data set [1] it was 0.13 µM; in data set [2], more than 50 µM.
In the case of `O=C1NC(=O)c2ccccc2/C1=C/Nc1ccc(CN2CCOCC2)cc1`, the results for the IC50 in data set [1], in data set [2] and in data set [3] were 10 µM, more than 27 µM and 21 µM, respectively.
Turning to `C[C@@H]1CN(c2ccc(N/C=C3\C(=O)NC(=O)c4ccc(I)cc43)cc2)[C@@H](C)CN1C`, the IC50 with HCT-116 is 5 µM; with MCF7 it was 1 µM; in data set [1], 3 µM; in data set [2], more than 50 µM; in data set [3], more than 50 µM. Besides, the solubility in data set [4] came to 4 µg/mL (≈ 7.75 µM).
Take `COc1ccc2c(c1)/C(=C/Nc1ccc(CN3CCCCC3)cc1)C(=O)NC2=O`: the IC50 was 2 µM in data set [1], more than 50 µM in data set [2] and more than 50 µM in data set [3].
For the compound `CN1CCN(c2ccc(N/C=C3\C(=O)NC(=O)c4ccc(-c5ccoc5)cc43)nc2)CC1`, the IC50 in data set [2] was more than 50 µM.
`CN1CCN(c2ccc(N/C=C3\C(=O)NC(=O)c4cc(Br)ccc43)cc2)CC1`: the IC50 was 12.1 µM in data set [1] and more than 50 µM in data set [2].
For the compound `CN1CCN(c2ncc(N/C=C3\C(=O)NC(=O)c4ccc(-c5ccoc5)cc43)cn2)CC1`, the IC50 amounted to 1.1 µM in the data set with HCT-116 and 3.2 µM in the data set with MCF7.
With `O=C1NC(=O)c2ccc([N+](=O)[O-])cc2/C1=C/Nc1ccc(CN2CCCCC2)cc1`, the IC50 is 15.1 µM in data set [1], more than 50 µM in data set [2] and more than 50 µM in data set [3].
Consider `O=C1NC(=O)c2ccc(Cl)cc2/C1=C/Nc1ccc(CN2CCCCC2)cc1`, for which the half-maximal inhibitory concentration (IC50) in data set [2] is more than 50 µM.
Turning to `O=C1NC(=O)c2ccc(-c3ccc(F)cc3)cc2/C1=C/Nc1ccc(CN2CCCCC2)cc1`, the half-inhibitory concentration (IC50) is 1 µM with HCT-116, 0.55 µM in the data set on MCF7, more than 50 µM in data set [2] and more than 50 µM in data set [3].
For the compound `CN1CCN(c2ccc(N/C=C3\C(=O)NC(=O)c4ccc(/C=C/c5ccccc5)cc43)cc2)CC1`, the IC50 in data set [1] came to 14.3 µM.
As for `O=C1NC(=O)c2ccccc2/C1=C/Nc1ccc(CN2CCCCC2)cc1`, the values for the IC50 in data set [1], in data set [2] and in data set [3] were 3.3 µM, more than 27 µM and 19.6 µM, respectively.
For the compound `O=C1NC(=O)c2ccc(-c3ccoc3)cc2/C1=C/Nc1ccc(CN2CCCCC2)cc1`, the IC50 in data set [2] and in data set [3] was more than 50 µM in each case.
